Values after ≈ are worked out from the molar mass of the structure shown.
Biological target: DNA gyrase subunit A/DNA gyrase subunit B (Mycobacterium tuberculosis (strain ATCC 25618 / H37Rv), UniProt P9WG45+P9WG47)
Test: Inhibition of Mycobacterium tuberculosis DNA gyrase assessed as inhibition of supercoiling activity using relaxed pBR322 plasmid as substrate after 30 mins
Details: not given

Chain of DNA gyrase subunit A/DNA gyrase subunit B (P9WG45 whole entry): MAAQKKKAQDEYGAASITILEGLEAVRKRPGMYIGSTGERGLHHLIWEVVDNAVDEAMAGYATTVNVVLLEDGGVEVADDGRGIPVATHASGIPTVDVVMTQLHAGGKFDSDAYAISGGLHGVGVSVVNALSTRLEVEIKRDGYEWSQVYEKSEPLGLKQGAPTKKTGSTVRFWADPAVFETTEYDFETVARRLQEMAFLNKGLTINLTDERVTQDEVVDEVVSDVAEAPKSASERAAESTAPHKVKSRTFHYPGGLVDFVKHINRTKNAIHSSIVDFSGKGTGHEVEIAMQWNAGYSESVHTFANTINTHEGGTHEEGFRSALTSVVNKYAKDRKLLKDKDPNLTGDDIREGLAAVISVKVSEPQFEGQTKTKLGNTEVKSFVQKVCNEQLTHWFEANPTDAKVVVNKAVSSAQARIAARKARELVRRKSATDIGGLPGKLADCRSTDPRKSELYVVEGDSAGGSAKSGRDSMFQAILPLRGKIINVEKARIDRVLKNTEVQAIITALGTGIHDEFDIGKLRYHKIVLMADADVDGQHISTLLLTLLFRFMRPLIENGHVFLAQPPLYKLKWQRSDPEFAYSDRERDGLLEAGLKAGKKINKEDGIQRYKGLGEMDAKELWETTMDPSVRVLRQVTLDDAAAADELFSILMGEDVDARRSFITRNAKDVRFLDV
Chain of DNA gyrase subunit A/DNA gyrase subunit B (P9WG47 whole entry): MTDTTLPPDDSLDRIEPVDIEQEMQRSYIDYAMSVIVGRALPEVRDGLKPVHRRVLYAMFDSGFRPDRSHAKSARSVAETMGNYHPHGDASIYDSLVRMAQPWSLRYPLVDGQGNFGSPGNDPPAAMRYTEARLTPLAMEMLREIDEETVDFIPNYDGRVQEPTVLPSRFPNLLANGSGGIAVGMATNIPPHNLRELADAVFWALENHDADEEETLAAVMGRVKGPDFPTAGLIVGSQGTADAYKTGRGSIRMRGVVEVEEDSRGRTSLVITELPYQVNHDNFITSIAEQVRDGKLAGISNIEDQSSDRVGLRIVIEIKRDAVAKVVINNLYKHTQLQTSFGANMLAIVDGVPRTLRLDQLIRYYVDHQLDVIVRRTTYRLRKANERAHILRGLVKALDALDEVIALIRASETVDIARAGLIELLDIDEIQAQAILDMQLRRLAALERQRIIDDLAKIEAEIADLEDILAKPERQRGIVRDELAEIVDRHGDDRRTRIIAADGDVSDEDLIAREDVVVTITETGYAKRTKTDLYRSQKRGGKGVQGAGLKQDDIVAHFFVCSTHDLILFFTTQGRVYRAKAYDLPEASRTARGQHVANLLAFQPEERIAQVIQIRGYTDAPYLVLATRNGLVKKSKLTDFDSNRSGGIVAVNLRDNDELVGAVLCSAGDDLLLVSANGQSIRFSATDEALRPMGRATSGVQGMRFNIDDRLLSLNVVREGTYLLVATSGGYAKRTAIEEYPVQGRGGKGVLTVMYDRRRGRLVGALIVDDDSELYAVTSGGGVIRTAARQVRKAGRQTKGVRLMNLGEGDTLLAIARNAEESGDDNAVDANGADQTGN

SMILES	IC50 [µM]
COc1cnc2ccc(=O)n(CCN3CCN(C(=O)Nc4ccc(Cl)cc4)CC3)c2c1	0.32
COc1cnc2ccc(=O)n(CCN3CCN(Cc4ccc([N+](=O)[O-])cc4)CC3)c2c1	0.98
COc1cnc2ccc(=O)n(CCN3CCN(Cc4ccc(Cl)cc4)CC3)c2c1	0.81
COc1cnc2ccc(=O)n(CCN3CCN(C(=S)Nc4ccc(C(C)=O)cc4)CC3)c2c1	16.4
COc1cnc2ccc(=O)n(CCN3CCN(C(=S)Nc4ccc([N+](=O)[O-])cc4)CC3)c2c1	18.5
COc1cnc2ccc(=O)n(CCN3CCN(Cc4ccc(Br)cc4)CC3)c2c1	6.44
COc1ccc(CN2CCN(CCn3c(=O)ccc4ncc(OC)cc43)CC2)cc1	1.34
COc1cnc2ccc(=O)n(CCN3CCN(C(=O)Nc4ccccc4)CC3)c2c1	13.5
COc1cnc2ccc(=O)n(CCN3CCN(C(=S)NCc4ccc(Cl)cc4)CC3)c2c1	0.95
COc1cnc2ccc(=O)n(CCN3CCN(C(=O)NCc4ccc(Cl)cc4)CC3)c2c1	0.92
COc1cnc2ccc(=O)n(CCN3CCN(C(=O)Nc4ccc(Br)cc4)CC3)c2c1	0.75
COc1cnc2ccc(=O)n(CCN3CCN(C(=S)Nc4ccc(F)cc4)CC3)c2c1	14.7
COc1cnc2ccc(=O)n(CCN3CCN(C(=O)Nc4ccc(C)cc4)CC3)c2c1	2.68
COc1cnc2ccc(=O)n(CCN3CCN(C(=S)Nc4ccc(C)cc4)CC3)c2c1	11.5
COc1cnc2ccc(=O)n(CCN3CCN(C(=O)Nc4ccc(F)cc4)CC3)c2c1	11.6
COc1ccc(CNC(=S)N2CCN(CCn3c(=O)ccc4ncc(OC)cc43)CC2)cc1	15.5
COc1ccc(CNC(=O)N2CCN(CCn3c(=O)ccc4ncc(OC)cc43)CC2)cc1	14.6
COc1cnc2ccc(=O)n(CCN3CCN(C(=S)Nc4ccc(Br)cc4)CC3)c2c1	0.49
COc1cnc2ccc(=O)n(CCN3CCN(C(=O)Nc4ccc([N+](=O)[O-])cc4)CC3)c2c1	0.29
COc1cnc2ccc(=O)n(CCN3CCN(C(=O)Nc4ccc(C(C)=O)cc4)CC3)c2c1	19.4
COc1cnc2ccc(=O)n(CCN3CCN(C(=S)Nc4ccc(Cl)cc4)CC3)c2c1	12.8
COc1cnc2ccc(=O)n(CCN3CCN(C(=S)Nc4ccccc4)CC3)c2c1	15.4
COc1cnc2ccc(=O)n(CCN3CCN(Cc4ccccc4)CC3)c2c1	0.94
COc1cnc2ccc(=O)n(CCN3CCN(Cc4ccc(F)cc4)CC3)c2c1	0.91

Test system: Mycobacterium tuberculosis
Test: Antimycobacterial activity against Mycobacterium tuberculosis H37Rv after 7 days by alamar blue assay
Format: functional
Details: 168 h

SMILES	MIC [µM]
CC[C@@H](CO)NCCN[C@@H](CC)CO [ETHAMBUTOL]	9.84 (≈ 2.01 µg/mL)
COc1cnc2ccc(=O)n(CCN3CCN(C(=O)Nc4ccc(Cl)cc4)CC3)c2c1	7.06 (≈ 3.12 µg/mL)
COc1cnc2ccc(=O)n(CCN3CCN(Cc4ccc([N+](=O)[O-])cc4)CC3)c2c1	7.38 (≈ 3.13 µg/mL)
COc1cnc2ccc(=O)n(CCN3CCN(Cc4ccc(Cl)cc4)CC3)c2c1	10.1 (≈ 4.17 µg/mL)
COc1cnc2ccc(=O)n(CCN3CCN(C(=S)Nc4ccc(C(C)=O)cc4)CC3)c2c1	10.7 (≈ 4.96 µg/mL)
COc1cnc2ccc(=O)n(CCN3CCN(C(=S)Nc4ccc([N+](=O)[O-])cc4)CC3)c2c1	26.7 (≈ 12.5 µg/mL)
COc1cnc2ccc(=O)n(CCN3CCN(Cc4ccc(Br)cc4)CC3)c2c1	13.7 (≈ 6.25 µg/mL)
COc1ccc(CN2CCN(CCn3c(=O)ccc4ncc(OC)cc43)CC2)cc1	3.82 (≈ 1.56 µg/mL)
COc1cnc2ccc(=O)n(CCN3CCN(C(=O)Nc4ccccc4)CC3)c2c1	30.7 (≈ 12.5 µg/mL)
COc1cnc2ccc(=O)n(CCN3CCN(C(=S)NCc4ccc(Cl)cc4)CC3)c2c1	4.31 (≈ 2.03 µg/mL)
COc1cnc2ccc(=O)n(CCN3CCN(C(=O)NCc4ccc(Cl)cc4)CC3)c2c1	6.6 (≈ 3.01 µg/mL)
COc1cnc2ccc(=O)n(CCN3CCN(C(=O)Nc4ccc(Br)cc4)CC3)c2c1	3.21 (≈ 1.56 µg/mL)
COc1cnc2ccc(=O)n(CCN3CCN(C(=S)Nc4ccc(F)cc4)CC3)c2c1	14.2 (≈ 6.25 µg/mL)
COc1cnc2ccc(=O)n(CCN3CCN(C(=O)Nc4ccc(C)cc4)CC3)c2c1	7.41 (≈ 3.12 µg/mL)
COc1cnc2ccc(=O)n(CCN3CCN(C(=S)Nc4ccc(C)cc4)CC3)c2c1	10.7 (≈ 4.66 µg/mL)
COc1cnc2ccc(=O)n(CCN3CCN(C(=O)Nc4ccc(F)cc4)CC3)c2c1	14.7 (≈ 6.25 µg/mL)
COc1ccc(CNC(=S)N2CCN(CCn3c(=O)ccc4ncc(OC)cc43)CC2)cc1	26.7 (≈ 12.5 µg/mL)
COc1ccc(CNC(=O)N2CCN(CCn3c(=O)ccc4ncc(OC)cc43)CC2)cc1	27.7 (≈ 12.5 µg/mL)
COc1cnc2ccc(=O)n(CCN3CCN(C(=S)Nc4ccc(Br)cc4)CC3)c2c1	3.8 (≈ 1.91 µg/mL)
COc1cnc2ccc(=O)n(CCN3CCN(C(=O)Nc4ccc([N+](=O)[O-])cc4)CC3)c2c1	3.45 (≈ 1.56 µg/mL)
COc1cnc2ccc(=O)n(CCN3CCN(C(=O)Nc4ccc(C(C)=O)cc4)CC3)c2c1	26.9 (≈ 12.1 µg/mL)
COc1cnc2ccc(=O)n(CCN3CCN(C(=S)Nc4ccc(Cl)cc4)CC3)c2c1	13.6 (≈ 6.25 µg/mL)
COc1cnc2ccc(=O)n(CCN3CCN(C(=S)Nc4ccccc4)CC3)c2c1	29.5 (≈ 12.5 µg/mL)
COc1cnc2ccc(=O)n(CCN3CCN(Cc4ccccc4)CC3)c2c1	4.12 (≈ 1.56 µg/mL)
COc1cnc2ccc(=O)n(CCN3CCN(Cc4ccc(F)cc4)CC3)c2c1	15 (≈ 5.95 µg/mL)
CO[C@@H]1[C@@H](OC(N)=O)[C@@H](O)[C@H](Oc2ccc3c(O)c(NC(=O)c4ccc(O)c(CC=C(C)C)c4)c(=O)oc3c2C)OC1(C)C [NOVOBIOCIN]	> 200
COc1c(N2C[C@@H]3CCCN[C@@H]3C2)c(F)cc2c(=O)c(C(=O)O)cn(C3CC3)c12 [MOXIFLOXACIN]	2.4 (≈ 0.963 µg/mL)

Test system: not listed separately
Test: Cytotoxicity against mouse RAW264.7 cells at 50 uM after 48 hrs by MTT assay
Format: cell-based
Details: read-out: INH

SMILES	cytotoxicity at 48 h, 50 µM [%]
COc1cnc2ccc(=O)n(CCN3CCN(C(=O)Nc4ccc(Cl)cc4)CC3)c2c1	27
COc1cnc2ccc(=O)n(CCN3CCN(Cc4ccc([N+](=O)[O-])cc4)CC3)c2c1	37.6
COc1cnc2ccc(=O)n(CCN3CCN(Cc4ccc(Cl)cc4)CC3)c2c1	26.5
COc1cnc2ccc(=O)n(CCN3CCN(C(=S)Nc4ccc(C(C)=O)cc4)CC3)c2c1	3.16
COc1cnc2ccc(=O)n(CCN3CCN(C(=S)Nc4ccc([N+](=O)[O-])cc4)CC3)c2c1	17.3
COc1cnc2ccc(=O)n(CCN3CCN(Cc4ccc(Br)cc4)CC3)c2c1	2.15
COc1ccc(CN2CCN(CCn3c(=O)ccc4ncc(OC)cc43)CC2)cc1	15.9
COc1cnc2ccc(=O)n(CCN3CCN(C(=O)Nc4ccccc4)CC3)c2c1	9.54
COc1cnc2ccc(=O)n(CCN3CCN(C(=S)NCc4ccc(Cl)cc4)CC3)c2c1	24.9
COc1cnc2ccc(=O)n(CCN3CCN(C(=O)NCc4ccc(Cl)cc4)CC3)c2c1	24.6
COc1cnc2ccc(=O)n(CCN3CCN(C(=O)Nc4ccc(Br)cc4)CC3)c2c1	24.4
COc1cnc2ccc(=O)n(CCN3CCN(C(=S)Nc4ccc(F)cc4)CC3)c2c1	21.6
COc1cnc2ccc(=O)n(CCN3CCN(C(=O)Nc4ccc(C)cc4)CC3)c2c1	32.3
COc1cnc2ccc(=O)n(CCN3CCN(C(=S)Nc4ccc(C)cc4)CC3)c2c1	26.8
COc1cnc2ccc(=O)n(CCN3CCN(C(=O)Nc4ccc(F)cc4)CC3)c2c1	25.2
COc1ccc(CNC(=S)N2CCN(CCn3c(=O)ccc4ncc(OC)cc43)CC2)cc1	17.1
COc1ccc(CNC(=O)N2CCN(CCn3c(=O)ccc4ncc(OC)cc43)CC2)cc1	37.6
COc1cnc2ccc(=O)n(CCN3CCN(C(=S)Nc4ccc(Br)cc4)CC3)c2c1	1.06
COc1cnc2ccc(=O)n(CCN3CCN(C(=O)Nc4ccc([N+](=O)[O-])cc4)CC3)c2c1	5.08
COc1cnc2ccc(=O)n(CCN3CCN(C(=O)Nc4ccc(C(C)=O)cc4)CC3)c2c1	18.6
COc1cnc2ccc(=O)n(CCN3CCN(C(=S)Nc4ccc(Cl)cc4)CC3)c2c1	6.59
COc1cnc2ccc(=O)n(CCN3CCN(C(=S)Nc4ccccc4)CC3)c2c1	32.6
COc1cnc2ccc(=O)n(CCN3CCN(Cc4ccccc4)CC3)c2c1	15
COc1cnc2ccc(=O)n(CCN3CCN(Cc4ccc(F)cc4)CC3)c2c1	26.4
CO[C@@H]1[C@@H](OC(N)=O)[C@@H](O)[C@H](Oc2ccc3c(O)c(NC(=O)c4ccc(O)c(CC=C(C)C)c4)c(=O)oc3c2C)OC1(C)C [NOVOBIOCIN]	19.3

Species: Danio rerio
Test: Toxicity in zebrafish embryo assessed as heart rate at 30 uM after 4 hrs
Format: organism-based
Details: in vivo

SMILES	Activity
COc1cnc2ccc(=O)n(CCN3CCN(C(=O)Nc4ccc(Cl)cc4)CC3)c2c1	Toxic
COc1cnc2ccc(=O)n(CCN3CCN(C(=O)Nc4ccc([N+](=O)[O-])cc4)CC3)c2c1	Toxic

Species: Danio rerio
Test: Toxicity in zebrafish embryo assessed as artrio-ventricular ratio at 30 uM after 4 hrs
Format: organism-based
Details: in vivo

SMILES	Activity
COc1cnc2ccc(=O)n(CCN3CCN(C(=O)Nc4ccc(Cl)cc4)CC3)c2c1	Toxic
COc1cnc2ccc(=O)n(CCN3CCN(C(=O)Nc4ccc([N+](=O)[O-])cc4)CC3)c2c1	Toxic

Species: Danio rerio
Test: Toxicity in zebrafish embryo assessed as heart rate at 10 uM after 4 hrs
Format: organism-based
Details: in vivo

SMILES	Activity
COc1cnc2ccc(=O)n(CCN3CCN(C(=O)Nc4ccc([N+](=O)[O-])cc4)CC3)c2c1	Toxic

Species: Danio rerio
Test: Toxicity in zebrafish embryo assessed as artrio-ventricular ratio at 10 uM after 4 hrs
Format: organism-based
Details: in vivo

SMILES	Activity
COc1cnc2ccc(=O)n(CCN3CCN(C(=O)Nc4ccc([N+](=O)[O-])cc4)CC3)c2c1	Toxic

Reference: ChEMBL document CHEMBL3739357, “Replacement of cardiotoxic aminopiperidine linker with piperazine moiety reduces cardiotoxicity? Mycobacterium tuberculosis novel bacterial topoisomerase inhibitors” (Bioorg Med Chem, 2016)
